{"source": "paper PMC6390093", "about": "“Structural basis of small RNA hydrolysis by oligoribonuclease (CpsORN) from Colwellia psychrerythraea strain 34H” (Scientific Reports, 2019)", "key": {"CpsORN [1]": {"target": "T1, CpsORN (Colwellia psychrerythraea, UniProt Q47VZ4)", "T1 construct": "gene orn", "assay": "X-ray crystal structure, […] Å", "assay_type": "binding", "details": "5 mM uridine added, 1 mM MnCl2; active site with Mn2+; two molecules per site; text describes a phosphate on U2"}, "CpsORN [2]": {"target": "T1, CpsORN", "assay": "spectrophotometric release of p-nitrophenolate at […] nm", "assay_type": "biochemical", "details": "3 mM substrate, 1 mM MnCl2, 50 mM Tris pH 8.0, 150 mM NaCl, 25 °C, 400 nM protein"}, "CpsORN [3]": {"target": "T2, CpsORN (Colwellia psychrerythraea, UniProt Q47VZ4, D163A)", "T2 construct": "gene orn", "assay": "X-ray crystal structure, […] Å", "assay_type": "binding", "details": "5 mM pNP-TMP, 1 mM MnCl2 added, no metal seen in active site; two molecules per site; inactive mutant"}, "[4]": {"target": "the molecule itself", "assay": "AUC; sedimentation velocity, 0.5 mg/mL CpsORN in 20 mM Tris-HCl pH 8.0, 150 mM NaCl, 45,000 rpm, monitored at 280 nm, SEDFIT"}, "[5]": {"target": "the molecule itself", "assay": "crystal structure; four crystal forms (unliganded, pNP-TMP-bound, linked uridine-bound, separated uridine-bound), sitting- or hanging-drop vapour diffusion at 293 K"}}}
{"molecule": "O=c1ccn([C@@H]2O[C@H](COP(=O)(O)O)[C@@H](O)[C@H]2O)c(=O)[nH]1", "values": [{"measurement": "X-ray crystal structure, 2.2 Å", "setting": "CpsORN [1]", "value": "6A4F (separated uridine-bound CpsORN)"}]}
{"molecule": "Cc1cn([C@H]2C[C@H](O)[C@@H](COP(=O)(O)Oc3ccc([N+](=O)[O-])cc3)O2)c(=O)[nH]c1=O", "note": "[pNP-TMP]", "values": [{"measurement": "spectrophotometric release of p-nitrophenolate at 420 nm", "setting": "CpsORN [2]", "value": "CpsORN showed hydrolysis activity toward pNP-TMP in the presence of manganese or magnesium"}, {"measurement": "X-ray crystal structure, 2.2 Å", "setting": "CpsORN [3]", "value": "The pNP-TMP complexed D163A mutant CpsORN crystal contains two pNP-TMP molecules in the active site"}]}
{"molecule": "oligoribonuclease from Colwellia psychrerythraea strain 34H (CpsORN), wild-type (enzyme, UniProt Q47VZ4 1-181, looked up, oligoribonuclease (CpsORN) of Colwellia psychrerythraea strain 34H, full-length gene orn, residues 1-181; pET-28a construct with a thrombin site after the His tag; also called unliganded CpsORN; source: E. coli BL21(DE3), purified (Ni-NTA, thrombin cleavage, Superdex 200); not shown: His6, N-terminal, cleaved) MAGNDSNLIWLDLEMTGLEPVEDVILEIAIIITDSELNILAQGPIFAISQTDDVLDNMNPWCIEHHGKSGLTQRCRDSEVSLAHATKESLAFVQEWVPQGKSPMCGNSIGQDRRFINKYMPDFEDHFHYRNLDVSTIKELAKRWKPEVLESVVKTGAHLALDDIKESIAELKVYRELFFKL", "values": [{"measurement": "stoichiometry N", "setting": "[4]", "value": 2}]}
{"molecule": "CpsORN D163A inactive mutant (enzyme, Colwellia psychrerythraea strain 34H, UniProt Q47VZ4 1-181, looked up, oligoribonuclease (CpsORN) of Colwellia psychrerythraea strain 34H, full-length gene orn with Asp163 replaced by alanine; Made from the wild-type plasmid and purified by the same procedure as the wild type; also called D163A mutant; source: E. coli BL21(DE3), purified (Ni-NTA, thrombin cleavage, Superdex 200); not shown: His6, N-terminal, cleaved) MAGNDSNLIWLDLEMTGLEPVEDVILEIAIIITDSELNILAQGPIFAISQTDDVLDNMNPWCIEHHGKSGLTQRCRDSEVSLAHATKESLAFVQEWVPQGKSPMCGNSIGQDRRFINKYMPDFEDHFHYRNLDVSTIKELAKRWKPEVLESVVKTGAHLALDAIKESIAELKVYRELFFKL", "values": [{"measurement": "binding result", "setting": "[5]", "value": "binds"}]}
